Here are results for 22 compounds from patent US10160762B2, “6-alkyl dihydropyrazolopyrimidinone compounds as PDE2 inhibitors” (Merck Sharp & Dohme Corp., priority 2015, dated 2018).

For this assay, the target named is T1, human PDE2A1 (Homo sapiens, UniProt O00408).
T1 construct: GST; purchased BPS Bioscience (San Diego, Calif.) 60020; host or cells: insect cells
As to the kind of experiment: IMAP FP PDE assay, human PDE2A1. The assay is classed as biochemical. The following applies: Lab B; read-out: Human PDE2 Ki (nM) Lab B. As to the method: Selectivity for PDE2, as compared to other PDE families, was assessed using the IMAP® technology. Human PDE10A2 enzyme was prepared from cytosolic fractions of transiently transfected HEK cells. All other PDE's were GST Tag human enzyme expressed in insect cells and were obtained from BPS Bioscience (San Diego, Calif.): PDE1A (Cat#60010), human PDE2A1 (Cat#60020), PDE3A (Cat#60030), PDE4A1A (Cat#60040), PDE5A1 (Cat#60050), PDE6C (Cat#60060), PDE7A (Cat#60070), PDE8A1 (Cat#60080), PDE9A2 (Cat#60090), PDE11A4 (Cat#60110).
Assays for PDE 1 through 11 were performed in parallel at room temperature in 384-well microtiter plates with an incubation volume of 20.2 μL. Solutions of test compounds were prepared in DMSO and serially diluted with DMSO to yield 30 μL of each of ten solutions differing by 3-fold in concentration, at 32 serial dilutions per plate. […] A Labcyte POD 810 (Labcyte, Sunnyvale, Calif.) was used to dispense 200 nL from each well of the titration plate to make eleven copies of the assay plate for each titration, one copy for each PDE enzyme. A solution of each enzyme (dilution from aliquots, sufficient to produce 20% substrate conversion) and a separate solution of FAM-labeled cAMP or FAM-labeled cGMP from Molecular Devices (Sunnyvale, Calif., product # R7506 or cGMP#R7508), at a final concentration of 50 nM were made in the assay buffer (10 mM Tris HCl, pH 7.2, 10 mM MgCl2, 0.05% NaN3 0.01% Tween-20, and 1 mM DTT). Note that the substrate for PDE2 is 50 nM FAM cAMP containing 1000 nM of cGMP. The enzyme and the substrate were then added to the assay plates in two consecutive additions of 10 μL and then shaken to mix. The reaction was allowed to proceed at room temperature for 60 minutes. A binding solution was then made from the kit components, comprised of 80% Solution A, 20% Solution B and binding reagent at a volume of 1/600 the total binding solution. The enzymatic reaction was stopped by addition of 60 μL of the binding solution to each well of the assay plate. The plates were sealed and shaken for 10 seconds. The plates were incubated at room temperature for one hour, then the parallel and perpendicular fluorescence was measured using a Tecan Genios Pro plate reader (Tecan, Switzerland). The apparent inhibition constants for the compounds against all 11 PDE's was determined from the parallel and perpendicular fluorescent readings as described for PDE10 FP assay using the following apparent KM values for each enzyme and substrate combination: PDE1A (FAM cGMP) 70 nM, human PDE2A1 (FAM cAMP) 10,000 nM, PDE3A (FAM cAMP) 50 nM, PDE4A1A (FAM cAMP) 1500 nM, PDE5A1 (FAM cGMP) 400 nM, PDE6C (FAM cGMP) 700 nM, PDE7A (FAM cAMP) 150 nM, PDE8A1 (FAM cAMP) 50 nM, PDE9A2 (FAM cGMP) 60 nM, PDE10A2 (FAM cAMP) 150 nM, PDE11A4 (FAM cAMP) 1000 nM. The intrinsic PDE2 inhibitory activity of a compound which may be used in accordance with the present invention may be determined by these assays.

What is called Ki is a measure of affinity in units of concentration, obtained from inhibition or displacement.

T1 sequence (O00408 1-920 isoform O00408-2): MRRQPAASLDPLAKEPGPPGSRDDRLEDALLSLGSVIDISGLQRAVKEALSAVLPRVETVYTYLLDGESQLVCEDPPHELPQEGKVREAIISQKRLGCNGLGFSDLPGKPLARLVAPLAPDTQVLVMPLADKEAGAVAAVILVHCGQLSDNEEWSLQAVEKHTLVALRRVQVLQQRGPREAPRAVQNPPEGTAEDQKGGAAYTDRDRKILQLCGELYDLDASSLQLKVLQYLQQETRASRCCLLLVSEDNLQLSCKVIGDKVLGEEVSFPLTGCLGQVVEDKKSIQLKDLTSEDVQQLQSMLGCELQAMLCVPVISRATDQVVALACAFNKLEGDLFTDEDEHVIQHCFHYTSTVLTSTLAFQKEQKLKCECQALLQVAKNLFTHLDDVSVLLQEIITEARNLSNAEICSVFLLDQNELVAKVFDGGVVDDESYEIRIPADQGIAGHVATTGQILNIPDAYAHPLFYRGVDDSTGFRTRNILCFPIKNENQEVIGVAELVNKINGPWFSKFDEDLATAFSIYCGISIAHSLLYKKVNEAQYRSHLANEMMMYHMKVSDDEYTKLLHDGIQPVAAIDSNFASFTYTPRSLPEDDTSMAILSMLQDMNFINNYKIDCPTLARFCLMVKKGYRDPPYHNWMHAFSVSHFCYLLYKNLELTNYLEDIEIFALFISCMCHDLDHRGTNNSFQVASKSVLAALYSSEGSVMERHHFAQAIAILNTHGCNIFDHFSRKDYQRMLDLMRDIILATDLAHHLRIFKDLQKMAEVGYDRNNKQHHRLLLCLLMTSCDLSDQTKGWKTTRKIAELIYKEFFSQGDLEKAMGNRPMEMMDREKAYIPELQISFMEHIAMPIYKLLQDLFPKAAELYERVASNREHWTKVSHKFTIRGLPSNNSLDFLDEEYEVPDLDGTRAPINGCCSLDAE

Turning to `Cc1nc2c(c(C(F)F)nn2C(C)c2ccc(SC(F)(F)F)cc2)c(=O)[nH]1` (single isomer, unassigned) [Example 180, (S)- or (R)-3-(Difluoromethyl)-6-methyl-1-(1-(4-(trifluoromethylthio)phenyl)ethyl)-1H-pyrazolo[3,4-d] pyrimidin-4(5H)-one], the Ki is 0.55 nM.

With `Cc1nc2c(c(CO)nn2C(C)c2ccc(C(F)F)cc2)c(=O)[nH]1` (single isomer, unassigned) [Example 111, (S)- or (R)-1-(1-(4-(Difluoromethyl)phenyl)ethyl)-3-(hydroxymethyl)-6-methyl-1H-pyrazolo[3,4-d]pyrimidin-4(5H)-one], the Ki is 3.2 nM.

As for `COc1cccc(Cc2nc3c(c(C#N)nn3C(C)c3ccc(C(F)(F)F)cc3)c(=O)[nH]2)c1` (single isomer, unassigned) [Example 349], the Ki is 373 nM.

On to `CC(c1ccc(C(F)(F)F)cc1)n1nc(CO)c2c(=O)[nH]c(C3CCCO3)nc21` (single isomer, unassigned) [Example 314, (S,R)- or (R,R)- or (S,S)- or (R,S)-3-(Hydroxymethyl)-6-(tetrahydrofuran-2-yl)-1-(1-(4-(trifluoromethyl)-phenyl)ethyl)-1,5-dihydro-4H-pyrazolo[3,4-d]pyrimidin-4-one], for which the Ki amounted to 38 nM.

Take `Cc1nc2c(c(CO)nn2C(C)c2ccc(OC(F)F)cc2)c(=O)[nH]1` (single isomer, unassigned) [Example 20, (R)- or (S)-1-(1-(4-(Difluoromethoxy)phenyl)ethyl)-3-(hydroxymethyl)-6-methyl-1H-pyrazolo[3,4-d]pyrimidin-4(5H)-one]: the Ki turned out to be 305 nM.

Consider `Cc1nc2c(c(C(F)(F)F)nn2C(C)c2ccc(C(F)(F)F)cc2)c(=O)[nH]1` (single isomer, unassigned) [Example 69, (S)- or-(R)-6-Methyl-3-(trifluoromethyl)-1-(1-(4-(trifluoromethyl)phenyl)ethyl)-1H-pyrazolo[3,4-d]pyrimidin-4(5H)-one], for which the Ki turned out to be 713 nM.

`CC(c1ccc(C(F)(F)F)cc1)n1nc(CO)c2c(=O)[nH]c(CC3CCCC3)nc21` (single isomer, unassigned) [Example 308, (S)- or (R)-6-(Cyclopentyl-methyl)-3-(hydroxymethyl)-1-(1-(4-(trifluoromethyl)phenyl)ethyl)-1,5-dihydro-4H-pyrazolo[3,4-d]pyrimidin-4-one]: the Ki amounted to 329 nM.

Regarding `Cc1nc2c(c(CC3COC3)nn2C(C)c2ccc(C(F)(F)F)cc2)c(=O)[nH]1` (stereo not shown) [Example 289, 6-Methyl-3-(oxetan-3-ylmethyl)-1-(1-(4-(trifluoromethyl)phenyl)ethyl)-1H-pyrazolo[3,4-d]pyrimidin-4(5H)-one], the Ki was 388 nM.

As to `Cc1nc2c(c(C(F)F)nn2C(C)c2ccc(C3(C(F)(F)F)CC3)cc2)c(=O)[nH]1` (stereo not shown) [Example 164, 3-(Difluoromethyl)-6-methyl-1-(1-(4-(1-(trifluoromethyl)cyclopropyl)phenyl)ethyl)-1H-pyrazolo[3,4-d]pyrimidin-4(5H)-one], the Ki turned out to be 8.2 nM.

As for `Cc1nc2c(c(C(=O)N3CCOCC3)nn2C(C)c2ccc(C(F)(F)F)cc2)c(=O)[nH]1` (single isomer, unassigned) [Example 270, (R)- or (S)-6-Methyl-3-(morpholine-4-carbonyl)-1-(1-(4-(trifluoromethyl)phenyl)ethyl)-1H-pyrazolo[3,4-d]pyrimidin-4(5H)-one], the Ki was greater than 2960 nM.

On to `Cc1nc2c(c(C(F)F)nn2C(C)c2ccc(C(F)(F)F)c(F)c2)c(=O)[nH]1` (single isomer, unassigned) [Example 168, (S)- or (R)-3-(Difluoromethyl)-1-(1-(3-fluoro-4-(trifluoromethyl)phenyl)ethyl)-6-methyl-1H-pyrazolo[3,4-d]pyrimidin-4(5H)-one], for which the Ki is 1.4 nM.

As to `Cc1nc2c(c(CO)nn2C(C)c2ccc(C(F)(F)F)cn2)c(=O)[nH]1` (single isomer, unassigned) [Example 152, (S)- or (R)-3-(Hydroxymethyl)-6-methyl-1-(1-(5-(trifluoromethyl)pyridin-2-yl)ethyl)-1H-pyrazolo[3,4-d]pyrimidin-4(5H)-one], the Ki worked out at 1180 nM.

In the case of `Cc1nc2c(c(CO)nn2C(C)c2ccc(C3(C(F)(F)F)CC3)cc2)c(=O)[nH]1` (single isomer, unassigned) [Example 80], the Ki is 624 nM.

In the case of `Cc1nc2c(c(CO)nn2C(C)c2ccc(C(F)(F)F)s2)c(=O)[nH]1` (single isomer, unassigned) [Example 155, (R)- or (S)-3-(Hydroxymethyl)-6-methyl-1-(1-(5-(trifluoromethyl)thiophen-2-yl)ethyl)-1H-pyrazolo[3,4-d]pyrimidin-4(5H)-one], the Ki is roughly 1630 nM.

As to `Cc1nc2c(c(CO)nn2C(C)c2ccc(C(F)(F)F)nc2)c(=O)[nH]1` (single isomer, unassigned) [Example 130, (R)- or (S)-3-(Hydroxymethyl)-6-methyl-1-(1-(6-(trifluoromethyl)pyridin-3-yl)ethyl)-1H-pyrazolo[3,4-d]pyrimidin-4(5H)-one], the Ki was no less than 2960 nM.

With `COCC(c1ccc(C(F)(F)F)cc1)n1nc(CO)c2c(=O)[nH]c(C)nc21` (single isomer, unassigned) [Example 100, (R)- or (S)-3-(Hydroxymethyl)-1-(2-methoxy-1-(4-(trifluoromethyl)phenyl)ethyl)-6-methyl-1H-pyrazolo[3,4-d]pyrimidin-4(5H)-one], the Ki is roughly 1670 nM.

For `Cc1nc2c(c(CO)nn2C(C)c2ccc(S(F)(F)(F)(F)F)cc2F)c(=O)[nH]1` (single isomer, unassigned) [Example 121], the Ki is 2.8 nM.

`Cc1nc2c(c(CC(O)C(F)(F)F)nn2C(C)c2ccc(C(F)(F)F)cc2)c(=O)[nH]1` (single isomer, unassigned) [Example 241]: the Ki came to 610 nM.

For the compound `Cc1nc2c(c(C(F)F)nn2C(C)c2ccc(C(F)(F)F)cc2F)c(=O)[nH]1` (single isomer, unassigned) [Example 185, (R)- or (S)-3-(Difluoro-methyl)-1-(1-(2-fluoro-4-(trifluoro-methyl)phenyl)-ethyl)-6-methyl-1H-pyrazolo[3,4-d]pyrimidin-4(5H)-one], the Ki came out at 303 nM.

Turning to `CC(c1ccc(C(F)(F)F)cc1)n1nc(-c2nnco2)c2c(=O)[nH]c(CC3CC3)nc21` (single isomer, unassigned) [Example 341, (S)- or (R)-6-(Cyclopropylmethyl)-3-(1,3,4-oxadiazol-2-yl)-1-(1-(4-(trifluoromethyl)phenyl)ethyl)-1,5-dihydro-4H-pyrazolo[3,4-d] pyrimidin-4-one], the Ki came out at 191 nM.

With `COCc1nc2c(c(CO)nn2C(C)c2ccc(S(F)(F)(F)(F)F)cc2)c(=O)[nH]1` (single isomer, unassigned) [Example 318, (S)- or (R)-3-(Hydroxymethyl)-6-(methoxymethyl)-1-{1-[4-(pentafluorosulfanyl)phenyl]ethyl}-1,5-dihydro-4H-pyrazolo[3,4-d]pyrimidin-4-one], the Ki was 3.8 nM.

As to `CC(c1ccc(C(F)(F)F)cc1)n1nc(C(F)F)c2c(=O)[nH]c(C3CC3)nc21` (single isomer, unassigned) [Example 192, (S)- or (R)-6-Cyclopropyl-3-(difluoromethyl)-1-(1-(4-(trifluoromethyl)phenyl)ethyl)-1,5-dihydro-4H-pyrazolo[3,4-d]pyrimidin-4-one], the Ki came to 3.4 nM.
